Among the data in DBAASP are MIC values, retold here.

The structures appear in SMILES notation. ≈ marks a conversion by molar mass, not a printed value.

Among the test systems are Escherichia coli UB1005; Acinetobacter baumannii; Bacillus subtilis; Escherichia coli; Candida albicans; Staphylococcus aureus.
Test in all cases: ≥ marks a high value that may be exact or a test limit, other limits are often not marked, values filed in µg/mL are converted to µM
The subject of test [1] is Staphylococcus aureus ATCC 29213.
Test [2] relates to Staphylococcus aureus ATCC 25923.
Test [3] relates to Escherichia coli ATCC 25922.
The subject of test [4] is Salmonella enterica subsp. enterica serovar Typhimurium C77-31.
Test [5] concerns Staphylococcus epidermidis ATCC 12228.
Test [6] relates to Staphylococcus aureus ATCC 6538.
Test [7] deals with Pseudomonas aeruginosa ATCC 9027.
For test [8], the system named is Klebsiella pneumoniae ATCC 700603.
For test [9], the system named is Enterococcus faecalis ATCC 29212.
The test system of test [10] is Acinetobacter baumannii ATCC 19606.

One may read the MIC as the lowest concentration found to suppress growth. High values mean a need for much substance, low ones inhibition by little substance. As for `CC[C@H](C)[C@H](NC(=O)[C@H](Cc1c[nH]c2ccccc12)NC(=O)[C@H](CCCCN)NC(=O)[C@H](CC(C)C)NC(=O)[C@@H](NC(=O)[C@H](CCCCN)NC(=O)CNC(=O)[C@@H](NC(=O)[C@@H](NC(=O)[C@H](CCCCN)NC(=O)[C@H](CC(C)C)NC(=O)[C@@H](NC(=O)[C@@H](NC(=O)[C@H](CCCN=C(N)N)NC(=O)[C@@H](NC(=O)[C@@H](NC(=O)[C@H](CCCCN)NC(=O)[C@H](CCCN=C(N)N)NC(=O)[C@H](CC(C)C)NC(=O)[C@@H](NC(=O)[C@H](CCCN=C(N)N)NC(=O)[C@H](Cc1ccccc1)NC(=O)[C@@H](NC(=O)CN)C(C)C)C(C)C)C(C)C)[C@@H](C)O)C(C)C)C(C)C)C(C)C)[C@@H](C)CC)C(C)C)C(N)=O` [GVFRVLRKVTRVVLKVIGKVLKWI], the MIC was 2 µM (≈ 5.61 µg/mL) in [1]; 2 µM (≈ 5.61 µg/mL) in [2]; 2 µM (≈ 5.61 µg/mL) in test [3]; 4 µM (≈ 11.2 µg/mL) in test [4]; 2 µM (≈ 5.61 µg/mL) in [5]; 4 µM (≈ 11.2 µg/mL) against Escherichia coli UB1005.
For the compound `CC(C)C[C@H](NC(=O)[C@H](C)NC(=O)[C@H](CCCCN)NC(=O)[C@H](CCCCN)NC(=O)[C@H](Cc1ccccc1)NC(=O)[C@H](C)NC(=O)[C@H](CCCCN)NC(=O)[C@H](C)NC(=O)[C@H](CC(C)C)NC(=O)[C@H](CC(C)C)NC(=O)[C@H](CCCCN)NC(=O)[C@H](C)NC(=O)[C@@H](N)Cc1ccccc1)C(N)=O` [FAKLLAKAFKKAL], the values for the MIC in test [6] and in [7] were 34.5 µM (≈ 50 µg/mL) and 10.4 µM (≈ 15 µg/mL), respectively.
The corresponding values for `CC(C)C[C@H](NC(=O)[C@H](CCCCN)NC(=O)[C@H](CCCCN)NC(=O)[C@H](C)NC(=O)[C@H](CC(C)C)NC(=O)[C@H](CCCCN)NC(=O)[C@H](C)NC(=O)[C@H](CC(C)C)NC(=O)[C@H](CC(C)C)NC(=O)[C@H](CCCCN)NC(=O)[C@H](C)NC(=O)[C@@H](N)Cc1ccccc1)C(N)=O` [FAKLLAKLAKKL] are 7.44 µM (≈ 9.99 µg/mL) and 149 µM (≈ 200 µg/mL).
Regarding `CSCC[C@H](NC(=O)[C@H](CC(C)C)NC(=O)[C@H](CCCCN)NC(=O)CNC(=O)[C@H](C)NC(=O)[C@H](C)NC(=O)[C@H](CCCN=C(N)N)NC(=O)[C@H](Cc1ccccc1)NC(=O)[C@H](CC(C)C)NC(=O)[C@@H](NC(=O)[C@H](Cc1c[nH]c2ccccc12)NC(=O)[C@@H](NC(=O)[C@@H](N)CCCCN)C(C)C)[C@@H](C)O)C(=O)N[C@@H](C)C(=O)N[C@@H](CCCCN)C(N)=O` [KVWTLFRAAGKLMAK], the minimum inhibitory concentration (MIC) against Acinetobacter baumannii was 25 µM (≈ 43 µg/mL); in test [8], > 25 µM; in test [7] it was > 25 µM; in [2], > 25 µM; in [3] it was > 25 µM.
For the compound `CC[C@H](C)[C@H](N)C(=O)N[C@@H](CC(N)=O)C(=O)N[C@@H](Cc1c[nH]c2ccccc12)C(=O)N[C@@H](CC(C)C)C(=O)N[C@@H](CCCCN)C(=O)N[C@@H](CC(C)C)C(=O)NCC(=O)N[C@@H](CCCCN)C(=O)N[C@@H](CCCCN)C(=O)N[C@@H](CCSC)C(=O)N[C@@H](CCSC)C(=O)N[C@@H](CO)C(=O)N[C@@H](C)C(=O)N[C@H](C(N)=O)[C@@H](C)CC` [INWLKLGKKMMSAI], the results for the MIC against Bacillus subtilis and against Escherichia coli were ≥ 35 µM and 70 µM (≈ 114 µg/mL), respectively.
As to `CC[C@H](C)[C@H](N)C(=O)N[C@@H](CC(N)=O)C(=O)N[C@@H](Cc1c[nH]c2ccccc12)C(=O)N[C@@H](CO)C(=O)N[C@@H](CO)C(=O)N[C@H](C(=O)N[C@@H](Cc1ccccc1)C(=O)N[C@@H](CCC(=O)O)C(=O)N[C@@H](CO)C(=O)N[C@H](C(=O)N[C@@H](CCCCN)C(=O)N[C@@H](CC(N)=O)C(=O)N[C@@H](CC(C)C)C(=O)N[C@H](C(N)=O)C(C)C)C(C)C)[C@@H](C)CC` [INWSSIFESVKNLV], the results for the MIC against Bacillus subtilis and in the test on Escherichia coli were ≥ 87.5 µM and 100 µM (≈ 163 µg/mL), respectively.
`CC(C)C[C@H](NC(=O)[C@H](C)NC(=O)[C@H](CCCCN)NC(=O)[C@H](C)NC(=O)[C@H](CC(C)C)NC(=O)[C@H](CCCCN)NC(=O)[C@H](CCCCN)NC(=O)[C@H](C)NC(=O)[C@H](CC(C)C)NC(=O)[C@H](CCCCN)NC(=O)[C@H](CCCCN)NC(=O)[C@H](C)NC(=O)[C@@H](N)Cc1ccccc1)C(N)=O` [FAKKLAKKLAKAL]: the minimal inhibitory concentration (MIC) in test [6] turned out to be 10.5 µM (≈ 15 µg/mL); in test [7], 3.5 µM (≈ 5 µg/mL).
In the case of `CC(C)C[C@H](NC(=O)[C@H](CCCCN)NC(=O)[C@H](CCCCN)NC(=O)[C@H](C)NC(=O)[C@H](CC(C)C)NC(=O)[C@H](CCCCN)NC(=O)[C@H](C)NC(=O)[C@H](CC(C)C)NC(=O)[C@H](CCCCN)NC(=O)[C@H](CCCCN)NC(=O)[C@H](C)NC(=O)[C@@H](N)Cc1ccccc1)C(N)=O` [FAKKLAKLAKKL], the MIC was 73.6 µM (≈ 99.9 µg/mL) in [6] and 18.4 µM (≈ 25 µg/mL) in test [7].
As for `CC[C@H](C)[C@H](NC(=O)[C@H](CCCCN)NC(=O)[C@H](CCCCN)NC(=O)[C@H](CC(C)C)NC(=O)[C@H](CCCN=C(N)N)NC(=O)[C@@H]1CSSC[C@H](NC(=O)[C@H](CCCN=C(N)N)NC(=O)[C@H](CC(C)C)NC(=O)[C@H](CCCN=C(N)N)NC(=O)[C@H](CCCN=C(N)N)NC(=O)[C@H](Cc2ccccc2)NC(=O)[C@@H](N)CCCN=C(N)N)C(=O)N[C@@H](CCCCN)C(=O)N[C@@H]([C@@H](C)O)C(=O)N[C@@H](CCCN=C(N)N)C(=O)N1)C(N)=O` [RFRRLRCKTRCRLKKI], the minimum inhibitory concentration (MIC) was > 128 µM in test [1]; > 128 µM in [9]; ≥ 128 µM in [4]; > 128 µM in test [5]; ≥ 128 µM in the test with Escherichia coli UB1005.
As for `CC[C@H](C)[C@H](NC(=O)CNC(=O)[C@H](CC(C)C)NC(=O)[C@H](CCCCN)NC(=O)[C@H](C)NC(=O)[C@H](CC(C)C)NC(=O)[C@H](C)NC(=O)[C@@H](NC(=O)[C@H](CCCCN)NC(=O)[C@H](C)NC(=O)[C@@H](NC(=O)[C@@H](N)CCCCN)[C@@H](C)CC)C(C)C)C(=O)NCC(=O)N[C@@H](C)C(=O)N[C@H](C(=O)N[C@@H](CC(C)C)C(=O)N[C@@H](CCCCN)C(=O)N[C@H](C(=O)N[C@@H](CC(C)C)C(=O)N[C@H](C(=O)N[C@H](C(=O)NCC(=O)N[C@@H](CC(C)C)C(N)=O)[C@@H](C)O)[C@@H](C)O)C(C)C)C(C)C` [KIAKVALAKLGIGAVLKVLTTGL], the minimum inhibitory concentration (MIC) in test [6] and in test [7] was 87.8 µM (≈ 200 µg/mL) throughout.
Regarding `CC[C@H](C)[C@H](NC(=O)CNC(=O)[C@H](CCCCN)NC(=O)[C@@H](NC(=O)[C@H](CC(C)C)NC(=O)[C@H](CO)NC(=O)CNC(=O)[C@H](CC(C)C)NC(=O)CNC(=O)[C@H](C)NC(=O)[C@H](CCCCN)NC(=O)[C@H](CC(C)C)NC(=O)[C@@H](NC(=O)[C@H](CCC(=O)O)NC(=O)[C@H](CCCCN)NC(=O)[C@H](Cc1ccccc1)NC(=O)CN)C(C)C)C(C)C)C(=O)N1CCC[C@H]1C(=O)N[C@@H](C)C(=O)N[C@@H](Cc1cnc[nH]1)C(=O)N[C@H](C(=O)N[C@@H](C)C(=O)N[C@@H](CC(N)=O)C(N)=O)C(C)C` [GFKEVLKAGLGSLVKGIPAHVAN], the MIC is 217 µM (≈ 500 µg/mL) in the test with Escherichia coli, > 400 µM against Candida albicans and 434 µM (≈ 1000 µg/mL) in the test on Staphylococcus aureus.
For the compound `CC[C@H](C)[C@H](N)C(=O)N[C@H](C(=O)N[C@@H](CCCCN)C(=O)N[C@@H](Cc1c[nH]c2ccccc12)C(=O)N[C@@H](CC(C)C)C(=O)N[C@@H](CC(C)C)C(=O)N[C@@H](CC(N)=O)C(=O)N[C@@H](C)C(=O)N[C@H](C(=O)N[C@@H](CCCCN)C(=O)N[C@@H](CCCCN)C(=O)NCC(=O)N[C@@H](Cc1ccccc1)C(=O)N[C@@H](CCCCN)C(=O)N[C@@H](CC(C)C)C(=O)O)[C@@H](C)CC)[C@@H](C)O` [ITKWLLNAIKKGFKL], the minimum inhibitory concentration (MIC) against Acinetobacter baumannii is ≥ 32 µM; in [8], 64 µM (≈ 113 µg/mL); in [7] it was 64 µM (≈ 113 µg/mL); in test [2] it was 64 µM (≈ 113 µg/mL); in [3], 64 µM (≈ 113 µg/mL).
On to `CC[C@H](C)[C@H](NC(=O)[C@H](CCCN=C(N)N)NC(=O)[C@@H](NC(=O)[C@@H](NC(=O)[C@@H]1CCCN1C(=O)[C@@H](NC(=O)[C@@H](NC(=O)[C@@H](NC(=O)[C@@H]1CCCN1C(=O)CNC(=O)[C@H](Cc1ccc(O)cc1)NC(=O)[C@H](CCCCN)NC(=O)[C@H](CCCCN)NC(=O)[C@H](Cc1c[nH]c2ccccc12)NC(=O)[C@H](C)NC(=O)[C@H](CCCN=C(N)N)NC(=O)[C@H](CC(C)C)NC(=O)[C@@H](NC(=O)[C@H](CCCCN)NC(=O)[C@H](CCCN=C(N)N)NC(=O)CNC(=O)[C@H](CC(C)C)NC(=O)[C@H](CCCCN)NC(=O)[C@H](CCCN=C(N)N)NC(=O)[C@H](CC(C)C)NC(=O)CNC(=O)CN)[C@@H](C)CC)[C@@H](C)CC)[C@@H](C)CC)C(C)C)[C@@H](C)CC)[C@@H](C)CC)C(=O)O` [GGLRKLGRKILRAWKKYGPIIVPIIRI], for which the values for the minimum inhibitory concentration (MIC) (with Acinetobacter baumannii; in [10]) were 6.42 µM (≈ 20 µg/mL) and 3.21 µM (≈ 10 µg/mL), respectively.
